Results reported in ChEMBL document CHEMBL3525974 (Drug Metab Dispos, 2012).

How the values were obtained:
Assay type in all cases: ADME
Liver microsome [1] = test: Drug metabolism in human liver microsomes treated with lopinavir at 30 uM preincubated for 5 mins prior NADPH addition measured after 50 mins by MS/MS spectroscopy
Liver microsome [2] = test: Retention time in human liver microsomes at 30 uM preincubated for 5 mins prior NADPH addition measured after 50 mins by UPLC-TOFMS analysis
Plasma [3] = test: Maximum plasma concentration in healthy human at 400 mg; set-up: dose 400 mg
Plasma [4] = test: Maximum plasma concentration in healthy human at 400 mg co-administered with 50 mg ritonavir; set-up: dose 400 mg

SMILES: CC(C)[C@@H](C(=O)N[C@@H](Cc1ccccc1)C[C@H](O)[C@H](Cc1ccccc1)NC(=O)/C=N/NC(N)=O)N1CCCNC1=O
- Drug metabolism (Liver microsome [1]): metabolite_detected
- Retention_time (Liver microsome [2]): 4.99 min

SMILES: Cc1cccc(C)c1OCC(=O)N[C@@H](Cc1ccccc1)[C@@H](O)C[C@H](Cc1ccccc1)NC(=O)[C@H](C(C)C)N1CCCNC1=O [LOPINAVIR]
- Cmax (Plasma [3]): 100 ng/mL
- Cmax (Plasma [4]): 5500 ng/mL
